Each structure is given as a SMILES string.

In experiment [1] the test system is Jurkat cells. The experiment is described as follows: Apoptosis in Jurkat cells (TUNEL, sub-G1 DNA, Annexin V). Format: cell-based. The settings on record: BH3I-1 100 μM, BH3I-2 30 μM; for TUNEL staining: 48 hr; for sub-G1 DNA content: 72 hr, PI, FACS. On the procedure:
FIG. 6C is a series of FACS analysis graphs showing Annexin V staining of Jurkat cells. Jurkat cells were treated with BH3I-1 (100 μM) or BH3I-2 (30 μM) and were stained 4 or 6 hr later with Annexin V-EGFP/PI. The relative amounts of live, apoptotic, and late apoptotic/necrotic cells are shown.
To further examine the ability of BH3Is to induce apoptosis, Jurkat cells were treated with BH3I-1 (100 μM) (FIG. 6A, panels a and b), BH3I-2 (30 μM) (FIG. 6A, panels c and d) or DMSO (FIG. 6A, panels e and f) for 48 hr. The cells were then stained using Hoechst dye and a FragEL TUNEL kit (Oncogene Research Products). […] This was determined by treating Jurkat cells with BH3I-1 (100 μM) or BH3I-2 (30 μM), fixing them 72 hr later, and staining them with propidium iodide (PI). The samples were analyzed by FACS. Finally, BH3Is induced the appearance of Annexin V binding without an increase in PI staining (FIG. 6C).

Experiment [2] has as its system Jurkat cells. The experiment is described as follows: Caspase activation with fluorogenic substrates. The format is cell-based. The settings on record: for caspase-3-like activity (DEVD.amc) / caspase-9-like activity (LEHD.amc): BH3I-1 100 μM, BH3I-2 50 μM; for time of maximum activation of both caspases: after addition of the BH3I. The procedure:
FIG. 6F is a graph showing the time course of caspase activation in Jurkat cells, as assayed using a QuantiPak kit (Biomol). The cells were treated with 100 μM of BH3I-1 (triangles) or 50 μM of BH3I-2 (squares) for 2, 6, 12, or 24 hr. A fluorescence based assay of caspase-3 (Ac-DEVD-AMC) activity was then performed. The numbers represent relative AMC fluorescence in each sample compared to the value obtained with untreated Jurkat cells incubated for 24 hours, set at 1. Standard deviation values are also shown.
FIG. 6G is a graph showing the time course of caspase activation in Jurkat cells, as assayed using a QuantiPak kit (Biomol). The cells were treated with 100 μM of BH3I-1 (triangles) or 50 μM of BH3I-2 (squares) for 2, 6, 12 or 24 hr. A fluorescence based assay of caspase-9 (Ac-LEHD-AMC) activity was then performed. The numbers represent relative AMC fluorescence in each sample compared to the value obtained with untreated Jurkat cells incubated for 24 hours, set at 1. Standard deviation values are also shown.
FIG. 6H is a graph showing the comparison of caspase-9 (Ac-LEHD-AMC) (open bars) and caspase-8 (Ac-IETD-AMC) (closed bars) activation 12 and 24 hr after treatment of Jurkat cells with BH3Is.
To evaluate the activation of caspases by BH3Is, the activation of caspases in the presence of these compounds was measured using the preferred caspase-3 and caspase-9 fluorogenic substrates DEVD.amc and LEHD.amc. […] Activation of both caspases followed an essentially identical time course and reached a maximum 12 hours after addition of the BH3I. If BH3Is induce apoptosis through a mitochondrial pathway, caspase-9 should be activated before caspase-8, since the latter is a mediator of the death receptor pathway at the plasma membrane (Cryns et al., Genes Dev. 12:1551-70, 1998 [published erratum appears in Genes Dev. 13:371, 1999]). Therefore, the levels of caspase-9 and caspase-8 activity were compared by measuring LEHD.amc/IETD.amc cleavage activities.

Another experiment relates to Jurkat/Bcl-xL cells. Briefly: Cell death in Bcl-xL overexpressing Jurkat cells (MTS, PI, sub-G1, FAM-VAD-fmk). Format: cell-based. The settings on record: for sub-G1 DNA: 100 μM BH3I-1 or 30 μM BH3I-2; for dose at which Bcl-xL overexpression gave no protection / doses from which Bcl-xL overexpression provided protection: 48 hr, MTS or PI. The procedure: If BH3Is act through inhibiting the function of anti-apoptotic members of Bcl-2 family, overexpression of Bcl-xL should provide protection against BH3Is, which can be overcome by increased amount of BH3Is. Furthermore, Bcl-xL overexpressing cells. should still undergo apoptosis when treated with a high enough dose of a BH3I to overcome the protection by Bcl-xL. To test this theory, Jurkat/Bcl-xL cells were treated with BH3I-1 and BH3I-2 for 48 hr. Cell death was determined using the MTS assay (FIG. 9A) or PI staining (FIG. 9B). Overexpression of Bcl-xL provided protection for Jurkat cells from lower doses of BH3Is (up to 40 μM of BH3I-2 and up to 100 μM of BH3I-1). Overexpression of Bcl-xL, however, gave no protection after treatment with 80 μM of BH3I-2 or 200 μM of BH3I-1. […] Caspases were activated in Hoechst-positive dying cells following treatment with high doses of BH3Is.

Experiment [3] concerns the target T1, U2AF35 / U2AF65 interaction (Homo sapiens, UniProt Q01081).
T1 construct: made in house; host or cells: U2AF65: TNT wheat germ lysate (Promega)
T1 sequence (Q01081 1-240): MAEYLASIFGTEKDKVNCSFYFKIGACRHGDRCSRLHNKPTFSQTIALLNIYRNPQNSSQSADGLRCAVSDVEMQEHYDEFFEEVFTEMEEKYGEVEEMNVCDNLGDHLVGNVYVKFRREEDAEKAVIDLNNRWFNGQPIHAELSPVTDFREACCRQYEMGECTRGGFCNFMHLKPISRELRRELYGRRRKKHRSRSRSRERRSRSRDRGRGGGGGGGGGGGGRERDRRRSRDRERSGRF
Briefly: Pulldown of splicing factors (specificity control). The format is binding. The settings on record: selectivity control. On the procedure:
Next, it was determined whether BH3Is could disrupt the heterodimerization of Bcl-xL with pro-apoptotic proteins from the Bcl-2 family, such as truncated Bid (tBid). Truncation of Bid by caspase-8 activates Bid and dramatically increases its affinity towards anti-apoptotic Bcl-2 family members (Li et al., Cell 94:491-501, 1998). To perform this study, in vitro translation of tBid or U2AF^65 (control) was performed using TNT® Coupled Reticulocyte and Wheat Germ Lysate Systems (Promega) respectively. Bcl-xL, U2AF^35 (control) or corresponding amounts of original Ni-NTA agarose beads (blank) were pre-incubated with the BH3 inhibitors or peptide in 100 μl of PBS for 30 min at 25° C. Then 1 μl of ^35S-labeled tBID or U2AF^65 was added and incubation was continued for 2 hr at 4° C. The samples were subjected to SDS-PAGE, coomassie blue staining and autoradiography.
To determine the specificity of BH3Is, their ability to inhibit other protein-protein interactions was tested using the pulldown assay described above and the splicing factors U2AF^35 and U2AF^65 (Zhang et al, Proc. Natl. Acad. Sci. USA 89:8769-73, 1992). […] BH3Is (80 μM) also had no effect on the interaction between the Apaf-1 CARD domain fragment and caspase-9 in the SELDI assay.

For `CC(C)C(C(=O)O)N1C(=O)C(=Cc2ccc(Br)cc2)SC1=S` (stereo in doubt) [BH3I-1], in the experiment with Jurkat cells [1], the TUNEL staining entry was “TUNEL positivity” and the “sub-G1 DNA content” value is “displayed sub-G1 DNA content”. In the experiment on Jurkat cells [2], the “caspase-3-like activity (DEVD.amc)” value is given as “increase”, the “caspase-9-like activity (LEHD.amc)” value is given as “increase” and the “time of maximum activation of both caspases” value was 12 h. In the experiment with Jurkat/Bcl-xL cells, the “sub-G1 DNA” value is “induced the appearance of sub-GI DNA”, the “dose at which Bcl-xL overexpression gave no protection” value was determined as 200 µM and the “doses from which Bcl-xL overexpression provided protection” value is listed as “up to 100 μM”. The “effect on interaction between splicing factors” value in experiment [3] is reported as “Neither BH3I-1 nor BH3I-2 affected the interaction”.
On to `O=C(Nc1cc(S(=O)(=O)c2ccc(Cl)cc2)ccc1Cl)c1cc(Cl)cc(Br)c1O` [BH3I-2], for which, in the experiment with Jurkat cells [1], the TUNEL staining entry was “TUNEL positivity” and the “sub-G1 DNA content” value is recorded as “displayed sub-G1 DNA content”. Besides, in the experiment with Jurkat cells [2], the “caspase-3-like activity (DEVD.amc)” value is reported as “increase”, the “caspase-9-like activity (LEHD.amc)” value was “increase” and the “time of maximum activation of both caspases” value turned out to be 12 h. Further, in the experiment with Jurkat/Bcl-xL cells, the “sub-G1 DNA” value is given as “induced the appearance of sub-GI DNA”, the “dose at which Bcl-xL overexpression gave no protection” value stood at 80 µM and the “doses from which Bcl-xL overexpression provided protection” value is “up to 40 μM”. Further, in experiment [3], the “effect on interaction between splicing factors” value is “Neither BH3I-1 nor BH3I-2 affected the interaction”.

The record behind these values is patent US7390836B2, “Small molecules used to increase cell death” (priority 1999, dated 2008).
